# Measurements: patent publication US6509367B1 (priority 2001, dated 2003)
# “Also recorded” adds a separate entry of the source. Where a name gives a salt, the structure may show the parent alone. Read-outs that look alike come from different tables or passages of the source. Marks after values point to notes of the source that are not given here.
# Assays:
# mice [1] = test: Rectal temperature (hypothermia) in mice, compound alone (agonism test); type: in vivo; conditions: for ED50: Mus musculus, iv
# Protocol: (§1) Male ICR mice (25-32 g), purchased from Harlan (Dublin, Va.), were housed in groups of five. All animals were kept in a temperature-controlled (20-22° C.) environment with a 12-hour light-dark cycle (lights on at 7 a.m.). Separate mice were used for testing each drug dose in the in vivo behavioral procedures. The mice were maintained on a […] light: dark cycle, and received food and water ad libitum. Brain tissue for binding studies was obtained from male Sprague-Dawley rats (150-200 g) purchased from Harlan Laboratories (Dublin, Va.).
# (§2) Measurement of spontaneous activity in mice occurred in standard activity chambers interfaced with a Digiscan Animal Activity Monitor (Omnitech Electronics, Inc., Columbus, Ohio). A standard tail-flick apparatus (described by Dewey et al., 1970) and a digital thermometer (Fisher Scientific, Pittsburgh, Pa.) were used to measure antinociception and rectal temperature, respectively.
# (§3) All drugs were administered to the mice intravenously (i.v.) in the tail vein at a volume of 0.1 ml/10 g.
# (§4) Maximum latency of 10 sec was used.
# mice [2] = test: Spontaneous (locomotor) activity in mice, compound alone (agonism test); type: in vivo; conditions: for change in vivo at 3 mg/kg: at 3 mg/kg i.v.; for inhibition in vivo at 30 mg/kg: read-out: Max % inhibit of spontaneous locomotor activity, Compound Alone; for stimulation of locomotor activity: compound alone, dose not given (see Table 5)
# Protocol: as §1, §2, §3, §4
# CB1 receptor = CB1 receptor (Rattus norvegicus, UniProt P20272); test: biochemical; type: binding; conditions: for Ki: 1 nM [3H] CP 55,940, rat whole brain P2 membranes, 30° C. for 1 hr
# Sequence of CB1 receptor (P20272 whole entry): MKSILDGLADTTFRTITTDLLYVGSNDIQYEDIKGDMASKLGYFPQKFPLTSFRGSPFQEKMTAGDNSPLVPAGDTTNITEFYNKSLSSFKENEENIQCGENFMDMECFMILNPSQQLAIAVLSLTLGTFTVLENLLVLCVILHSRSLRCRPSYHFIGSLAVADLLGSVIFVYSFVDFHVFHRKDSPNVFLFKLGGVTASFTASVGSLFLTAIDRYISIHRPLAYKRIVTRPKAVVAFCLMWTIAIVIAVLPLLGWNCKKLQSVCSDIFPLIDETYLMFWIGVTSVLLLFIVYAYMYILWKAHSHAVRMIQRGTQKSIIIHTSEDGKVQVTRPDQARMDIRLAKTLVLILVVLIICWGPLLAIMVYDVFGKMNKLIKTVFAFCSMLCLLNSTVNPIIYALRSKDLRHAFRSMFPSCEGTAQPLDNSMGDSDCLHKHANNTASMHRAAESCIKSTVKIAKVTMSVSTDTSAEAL
# Protocol: as §1
# All assays, as described briefly below, were performed in triplicate, and the results represent the combined data from three to six individual experiments. Following decapitation and rapid removal of the brain, whole brain was homogenized and centrifuged. The resulting pellet was termed P1. The supernatant was saved and combined with the two subsequent supernatants obtained from washing of the P1 pellet. The combined supernatant fractions were centrifuged, resulting in the P2 pellet. After further incubation and centrifuging, this pellet was resuspended in assay buffer to a protein concentration of approximately 2 mg/ml. The membrane preparation was quickly frozen in a bath solution of dry ice and 2-methylbutane (Sigma Chemical Co., St. Louis, Mo.), then stored at −80° C. for no more than 2 weeks. […] Binding was initiated by the addition of 150 μg of P2 membrane to test tubes containing 1 nM of [3H] […] Following incubation at 30° C. for 1 hr, binding was terminated by addition of ice-cold buffer and vacuum filtration through pretreated filters in a 12-well sampling manifold (Millipore, Bedford, Mass.). After washing, filters were placed into plastic scintillation vials (Packard, Downer Grove, Ill.) and shaken. The quantity of radioactivity present was determined by liquid scintillation spectrometry.
# mice [3] = test: Agonism tests in mice, stated across the triad (spontaneous activity, tail flick, rectal temperature); conditions: compound alone, i.v. doses up to 30 mg/kg
# mice [4] = test: Tail-flick antinociception in mice, compound alone (agonism test); type: in vivo; conditions: Mus musculus, iv
# Protocol: as §1, §2, §3, §4
# mice [5] = test: Spontaneous activity in mice, compound in combination with 3 mg/kg Δ^9-THC (antagonism test); type: in vivo; conditions: for SA: maximum % antagonism of 3 mg/kg Δ^9-THC: analog 10 min before Δ^9-THC
# Protocol: as §1, §2, §3, §4
# mice [6] = test: Rectal temperature in mice, compound in combination with 3 mg/kg Δ^9-THC (antagonism test); type: in vivo
# Protocol: as §1, §2, §3, §4
# mice [7] = test: Tail-flick antinociception in mice, compound in combination with 3 mg/kg Δ^9-THC (antagonism test); type: in vivo
# Protocol: as §1, §2, §3, §4
# mice [8] = test: Antagonism tests with 3 mg/kg Δ^9-THC, stated across the measures (locomotor, antinociception, hypothermia)
# mice [9] = conditions: cited from earlier work
# mice [10] = conditions: cited from earlier work; remark: listed apart in the source
# mice [11] = conditions: cited from earlier work; remark: listed apart in the source
# [12] = Mus musculus, iv, read-out: Max stim of spontaneous locomotor activity, Compound Alone
# [13] = Mus musculus, iv, at 30 mg/kg i.v.
# [14] = read-out: TF: > dose, 50% activity not achieved at this highest dose tested
# [15] = 0.5 h, i.v., 30 min post-injection, 95% confidence limits in parentheses, read-out: RT (rectal temperature) ED50
# [16] = Mus musculus, iv, mice, i.v., 95% confidence limits in parentheses, * = estimated ED50, dose-effect curve not linear, read-out: SA (suppression of spontaneous activity) ED50
# [17] = at the dose(s) [mg/kg] given in parentheses in the cell
# [18] = 20 min, i.v., 20 min post-injection, 95% confidence limits in parentheses, * = estimated ED50, dose-effect curve not linear, read-out: TF (tail flick, % MPE) ED50
# [19] = read-out: RT: > dose, 50% activity not achieved at this highest dose tested
# [20] = Mus musculus, iv, mice, i.v., read-out: SA: > dose, 50% activity not achieved at this highest dose tested
compound,measurement,setting,value
CCCCCCCC(=O)c1nn(-c2ccc(Cl)cc2Cl)c(-c2ccc(Cl)cc2)c1C [Compound O-1272],RT: maximal effect produced by the analog (change in rectal temperature),"mice [1]; i.v., at 30 mg/kg",−3 (30)^# ° C.
same,change in vivo at 3 mg/kg,mice [2]; [12],17%
same,inhibition in vivo at 30 mg/kg,mice [2]; [13],54%
same,SA: maximal effect produced by the analog,"mice [2]; mice, i.v., at 30 mg/kg",54% (30)^#
same,Ki,CB1 receptor; read-out: Ki,221 ± 36 nM
same,in vivo cannabinoid agonist activity (in words),mice [3],eliminated in vivo cannabimimetic activity
same,ED50,mice [4]; [14],> 30 mg/kg
"CCCCCNC(=O)c1nn(-c2ccc(Cl)cc2Cl)c(-c2ccc(Cl)cc2)c1C [Compound O-1269, N-(n-pentyl)-5-(4-chlorophenyl)-1-(2,4-dichlorophenyl)-4-methyl-1H-pyrazole-3-carboxamide]",ED50,mice [1]; [15],11 µmol/kg
same,change in vivo at 1 mg/kg,"mice [2]; Mus musculus, iv, at 1 mg/kg i.v., read-out: Max stim of spontaneous locomotor activity, Compound Alone",7%
same,inhibition in vivo at 30 mg/kg,mice [2]; [13],87%
same,ED50,mice [2]; [16],11 µmol/kg
same,SA: maximum % antagonism of 3 mg/kg Δ^9-THC,mice [5]; at 3 mg/kg i.v.,38% (3)
same,"Max % inhibit of spontaneous locomotor activity, Compound with 3 mg/kg Δ^9-THC",mice [5]; at 10 mg/kg i.v.,91% (10)
same,"Max stim of spontaneous locomotor activity, Compound with 3 mg/kg Δ^9-THC (in words)",mice [5]; [17],"None (1, 3 & 10)"
same,Ki,CB1 receptor; Ki (nM),32 ± 5 nM
same,in vivo cannabinoid agonist activity (in words),mice [3],agonist activity
same,ED50,mice [4]; [18],21 µmol/kg
same,RT: maximum % antagonism of 3 mg/kg Δ^9-THC,mice [6]; at 1 mg/kg i.v.,43% (1)
same,% MPE: maximum % antagonism of 3 mg/kg Δ^9-THC,mice [7]; at 3 mg/kg i.v.,66% (3)
CCC(C)c1ccc(-n2nc(C(=O)NN3CCCCC3)c(C)c2-c2ccc(Cl)cc2)cc1 (stereo not drawn) [Compound O-1253],ED50,mice [1]; [19],> 30 mg/kg
same,change in vivo at 30 mg/kg,"mice [2]; Mus musculus, iv, at 30 mg/kg i.v., read-out: Max stim of spontaneous locomotor activity, Compound Alone",73%
same,ED50,mice [2]; [20],> 30 mg/kg
same,"Max % inhibit of spontaneous locomotor activity, Compound Alone (in words: stimulation instead of inhibition)",mice [2]; doses in mg/kg,"stim at 1, 3, 10 & 30"
same,antagonism of the antinociceptive and hypothermic effects of Δ^9-THC (in words),mice [8]; 3 mg/kg Δ^9-THC i.v.,"full, dose-dependent antagonism"
same,"Max % inhibit of spontaneous locomotor activity, Compound with 3 mg/kg Δ^9-THC",mice [5]; at 0.1 mg/kg i.v.,89% (0.1)
same,SA: maximum % antagonism of 3 mg/kg Δ^9-THC,mice [5]; at 1 mg/kg i.v.,97% (1)
same,"Max stim of spontaneous locomotor activity, Compound with 3 mg/kg Δ^9-THC",mice [5]; at 10 mg/kg i.v.,50% (10)
same,Ki,CB1 receptor; Ki (nM),47 ± 2 nM
same,"CB1 binding affinity, fold less than SR 141716A",CB1 receptor; compared to SR 141716A,8 fold
same,ED50,mice [4]; [14],> 30 mg/kg
"CCCCCc1cc(O)c2c(c1)OC(C)(C)[C@@H]1CCC(C)=C[C@@H]21 [Δ^9-THC, Δ^9-tetrahydrocannabinol]","TF (tail flick, % MPE) ED50","mice [9]; from Wiley et al., 1998",2.7 µmol/kg
same,SA (suppression of spontaneous activity) ED50,"mice [10]; from Wiley et al., 1998",0.92 µmol/kg
same,RT (rectal temperature) ED50,"mice [11]; from Wiley et al., 1998",2.5 µmol/kg
"CCCCCCCNC(=O)c1nn(-c2ccc(Cl)cc2Cl)c(-c2ccc(Cl)cc2)c1C [Compound O-1270, N-(n-heptyl)-5-(4-chlorophenyl)-1-(2,4-dichlorophenyl)-4-methyl-1H-pyrazole-3-carboxamide]",ED50,mice [1]; [15],12 µmol/kg
same,change in vivo at 3 mg/kg,mice [2]; [12],29%
same,inhibition in vivo at 30 mg/kg,mice [2]; [13],80%
same,ED50,mice [2]; [16],27 µmol/kg
same,stimulation of locomotor activity,mice [2],29%
same,"Max % inhibit of spontaneous locomotor activity, Compound with 3 mg/kg Δ^9-THC",mice [5]; at 10 mg/kg i.v.,87% (10)
same,"Max stim of spontaneous locomotor activity, Compound with 3 mg/kg Δ^9-THC (in words)",mice [5]; [17],None (10)
same,SA: maximum % antagonism of 3 mg/kg Δ^9-THC (in words),mice [5]; [17],None (10)
same,Ki,CB1 receptor; Ki (nM),48 ± 12 nM
same,in vivo cannabinoid agonist activity (in words),mice [3],agonist activity
same,ED50,mice [4]; [18],20 µmol/kg
same,RT: maximum % antagonism of 3 mg/kg Δ^9-THC,mice [6]; at 1 mg/kg i.v.,26% (1)
same,% MPE: maximum % antagonism of 3 mg/kg Δ^9-THC,mice [7]; at 3 mg/kg i.v.,37% (3)
"Cc1c(C(=O)NN2CCCCC2)nn(-c2ccc(Cl)cc2Cl)c1-c1ccc(Cl)cc1 [SR141716A, N-(piperidin-1-yl)-5-(4-chlorophenyl)-1-(2,4-dichlorophenyl)-4-methyl-1H-pyrazole-3-carboxamide hydrochloride, reference compound]","antagonism of locomotor suppressant, antinociceptive and hypothermic effects of Δ^9-THC (in words)",mice [8]; 3 mg/kg Δ^9-THC i.v.,fully antagonized
same,SA: maximum % antagonism of 3 mg/kg Δ^9-THC,mice [5]; at 3 mg/kg i.v.,100% (3)
same,"TF: > dose, 50% activity not achieved at this highest dose tested","mice [9]; from Compton et al., 1996",>30^c mg/kg
same,"SA: > dose, 50% activity not achieved at this highest dose tested","mice [10]; from Compton et al., 1996",>30^c mg/kg
same,"RT: > dose, 50% activity not achieved at this highest dose tested","mice [11]; from Compton et al., 1996",>30^c mg/kg
same,% MPE: maximum % antagonism of 3 mg/kg Δ^9-THC,mice [7]; at 0.1 mg/kg i.v.,96% (0.1)
CCCCCC(=O)c1nn(-c2ccc(Cl)cc2Cl)c(-c2ccc(Cl)cc2)c1C [Compound O-1271],ED50,mice [1]; [19],> 30 mg/kg
same,change in vivo at 3 mg/kg,mice [2]; [12],54%
same,inhibition in vivo at 30 mg/kg,mice [2]; [13],7%
same,ED50,mice [2]; [20],> 30 mg/kg
same,stimulation of locomotor activity,mice [2],54%
same,average % antagonism across the three measures,mice [8]; in combination with 3 mg/kg Δ^9-THC i.v.,59%
same,"Max % inhibit of spontaneous locomotor activity, Compound with 3 mg/kg Δ^9-THC",mice [5]; at 3 mg/kg i.v.,58% (3)
same,SA: maximum % antagonism of 3 mg/kg Δ^9-THC,mice [5]; at 10 mg/kg i.v.,77% (10)
same,"Max stim of spontaneous locomotor activity, Compound with 3 mg/kg Δ^9-THC (in words)",mice [5]; [17],None (3 & 10)
same,Ki,CB1 receptor; Ki (nM),82 ± 10 nM
same,in vivo cannabinoid agonist activity (in words),mice [3],eliminated in vivo cannabimimetic activity; also recorded: did not have agonist properties
same,ED50,mice [4]; [14],> 30 mg/kg
same,RT: maximum % antagonism of 3 mg/kg Δ^9-THC,mice [6]; at 3 mg/kg i.v.,36% (3)
same,% MPE: maximum % antagonism of 3 mg/kg Δ^9-THC,mice [7]; at 10 mg/kg i.v.,65% (10)
